Data from PMC10487304, “Shaping the “hot” immunogenic tumor microenvironment by nanoparticles co‐delivering oncolytic peptide and TGF‐β1 siRNA for boosting checkpoint blockade therapy” (Bioengineering & Translational Medicine, 2022).
Where a SMILES comes first, the peptide text is derived from it. [ ]: non-standard residue; d: D form. The star is where a group is joined. FITC = O=C1OC2(c3ccc(O)cc3Oc3cc(O)ccc32)c2ccc(NC(=S)*)cc21; Dip = N[C@H](C(=O)O)C(c1ccccc1)c1ccccc1

Tests used:
[1] = due to high serum protein binding ability; cited from earlier work
From the text: Recently, several cationic antimicrobial peptides (CAPs), such as LTX‐315, have been extensively investigated as novel anticancer agents due to their ability to kill tumor cells and create a highly proinflammatory status of the TME, mainly via causing the destabilization of tumor cell plasma and mitochondrial membrane.[12] Subsequently, the CAPs trigger the immunogenic cell death (ICD) in tumor cells via Bax/Bak‐1 and caspase apoptotic pathways, which is along with the exposure or release of tumor antigens, danger‐associated molecular pattern (DAMP) molecules such as calreticulin, ATP and high ...

[2] = Balb/c mice, FITC fluorescence (485/535 nm) in blood samples
Experimental: At indicated time points, the mice were euthanized and the blood was taken from the heart. Sodium heparin was added to the blood samples at a concentration of 15 IU/ml. The fluorescence intensity of FITC‐LTX‐315 in the serum was measured using Tecan Infinite F200 Fluorescence Microplate Reader (Tecan, Seestrasse, Männedorf, Switzerland) at an excitation and emission wavelength of 485 and 535 nm, respectively.

| Compound | fate upon systemic administration [1] | elimination after i.v. injection [2] |
| --- | --- | --- |
| NCCCC[C@H](NC(=O)[C@@H](NC(=O)[C@H](Cc1c[nH]c2ccccc12)NC(=O)[C@H](CCCCN)NC(=O)[C@H](CCCCN)NC(=O)[C@H](Cc1c[nH]c2ccccc12)NC(=O)[C@H](Cc1c[nH]c2ccccc12)NC(=O)[C@H](CCCCN)NC(=O)[C@@H](N)CCCCN)C(c1ccccc1)c1ccccc1)C(N)=O [LTX-315] (H-KKWWKKW[Dip]K-NH2) | rapidly degraded into nontoxic metabolites |  |
| NCCCC[C@H](NC(=O)[C@@H](NC(=O)[C@H](Cc1c[nH]c2ccccc12)NC(=O)[C@H](CCCCN)NC(=O)[C@H](CCCCN)NC(=O)[C@H](Cc1c[nH]c2ccccc12)NC(=O)[C@H](Cc1c[nH]c2ccccc12)NC(=O)[C@H](CCCCN)NC(=O)[C@H](CCCCN)NC(=S)Nc1ccc2c(c1)C(=O)OC21c2ccc(O)cc2Oc2cc(O)ccc21)C(c1ccccc1)c1ccccc1)C(N)=O [FITC-LTX] ({FITC}-KKWWKKW[Dip]K-NH2) |  | eliminated within few minutes |
